As usually defined, the IC50 is the concentration needed to halve the response being measured. In general, half-life refers to how long it takes for the measured level to halve. By inhibition is commonly meant the percentage by which the read-out fell short of the control.

Experimental findings from ChEMBL document CHEMBL5257092, “Synthesis and biological evaluation of biaryl alkyl ethers as inhibitors of IDO1” (Bioorg Med Chem Lett, 2023) are described below.

The target in data set [1] is T1, Cytochrome P450 2C9 (Homo sapiens, UniProt P11712). Briefly: Inhibition of CYP2C9 (unknown origin). It is filed as ADME.
T1 sequence (P11712 whole entry): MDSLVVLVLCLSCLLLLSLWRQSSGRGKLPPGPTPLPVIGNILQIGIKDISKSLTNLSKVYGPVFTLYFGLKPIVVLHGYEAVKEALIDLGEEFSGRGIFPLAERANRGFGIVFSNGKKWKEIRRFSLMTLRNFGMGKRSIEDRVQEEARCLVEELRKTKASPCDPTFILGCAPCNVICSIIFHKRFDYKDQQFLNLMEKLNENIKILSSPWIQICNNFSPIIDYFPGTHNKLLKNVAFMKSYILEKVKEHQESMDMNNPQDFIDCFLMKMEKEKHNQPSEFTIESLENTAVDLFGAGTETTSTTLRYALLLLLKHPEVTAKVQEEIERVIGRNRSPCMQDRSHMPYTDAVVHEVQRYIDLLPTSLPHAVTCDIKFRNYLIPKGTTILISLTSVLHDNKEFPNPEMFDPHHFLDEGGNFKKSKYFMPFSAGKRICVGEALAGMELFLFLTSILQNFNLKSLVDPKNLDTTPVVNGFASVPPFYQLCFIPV
Data set [2] can be described thus: Stability in dog liver microsomes assessed as half life. Type of data set: ADME, Canis lupus familiaris, Microsome. Background: Microsomes from liver hold many membrane-bound enzymes, among them those of drug oxidation.
For the next data set, the target named is Cytochrome P450 2D6 (Homo sapiens, UniProt P10635). Briefly: Inhibition of human CYP2D6. It is filed as ADME.
Chain of Cytochrome P450 2D6 (P10635 whole entry): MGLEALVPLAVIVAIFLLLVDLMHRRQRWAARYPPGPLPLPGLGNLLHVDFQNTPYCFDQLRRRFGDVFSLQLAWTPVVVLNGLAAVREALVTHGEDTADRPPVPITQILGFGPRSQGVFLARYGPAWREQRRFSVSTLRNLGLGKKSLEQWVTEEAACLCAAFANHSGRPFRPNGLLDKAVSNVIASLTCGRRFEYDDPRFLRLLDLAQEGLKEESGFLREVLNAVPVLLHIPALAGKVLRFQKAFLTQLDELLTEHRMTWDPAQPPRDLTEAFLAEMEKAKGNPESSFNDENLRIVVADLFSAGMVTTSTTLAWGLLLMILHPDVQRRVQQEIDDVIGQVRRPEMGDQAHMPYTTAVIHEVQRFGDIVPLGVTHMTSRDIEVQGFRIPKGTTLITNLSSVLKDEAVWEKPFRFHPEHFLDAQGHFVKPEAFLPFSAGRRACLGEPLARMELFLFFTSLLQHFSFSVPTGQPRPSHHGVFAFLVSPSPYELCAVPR
Data set [3] is described as follows: Metabolic stability in human liver microsomes assessed as compound remaining at 0.5 uM incubated for 10 mins relative to control. The note with it: for remaining at 10 min, 0.5 µM: liver microsomes, read-out: Stability. Type of data set: ADME, Microsome.
The target of the next data set is Cytochrome P450 3A4 (Homo sapiens, UniProt P08684). Briefly: Inhibition of human CYP3A4. It is filed as ADME.
Chain of Cytochrome P450 3A4 (P08684 whole entry): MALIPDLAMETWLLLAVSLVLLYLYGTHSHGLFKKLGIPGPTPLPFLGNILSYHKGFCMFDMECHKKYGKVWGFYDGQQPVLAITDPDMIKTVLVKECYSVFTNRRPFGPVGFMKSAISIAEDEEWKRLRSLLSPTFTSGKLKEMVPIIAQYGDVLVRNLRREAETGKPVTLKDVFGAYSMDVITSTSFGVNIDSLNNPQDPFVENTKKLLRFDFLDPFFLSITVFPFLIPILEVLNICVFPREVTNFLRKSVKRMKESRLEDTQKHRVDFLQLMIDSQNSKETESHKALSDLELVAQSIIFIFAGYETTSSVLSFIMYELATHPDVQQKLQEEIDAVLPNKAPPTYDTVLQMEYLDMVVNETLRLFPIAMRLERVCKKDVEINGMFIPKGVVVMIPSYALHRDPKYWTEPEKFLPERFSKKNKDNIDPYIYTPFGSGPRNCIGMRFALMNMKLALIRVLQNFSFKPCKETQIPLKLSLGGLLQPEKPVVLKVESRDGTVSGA
In a further data set the target is Cytochrome P450 2C19 (Homo sapiens, UniProt P33261). Briefly: Inhibition of human CYP2C19. Type of data set: ADME.
Chain of Cytochrome P450 2C19 (P33261 whole entry): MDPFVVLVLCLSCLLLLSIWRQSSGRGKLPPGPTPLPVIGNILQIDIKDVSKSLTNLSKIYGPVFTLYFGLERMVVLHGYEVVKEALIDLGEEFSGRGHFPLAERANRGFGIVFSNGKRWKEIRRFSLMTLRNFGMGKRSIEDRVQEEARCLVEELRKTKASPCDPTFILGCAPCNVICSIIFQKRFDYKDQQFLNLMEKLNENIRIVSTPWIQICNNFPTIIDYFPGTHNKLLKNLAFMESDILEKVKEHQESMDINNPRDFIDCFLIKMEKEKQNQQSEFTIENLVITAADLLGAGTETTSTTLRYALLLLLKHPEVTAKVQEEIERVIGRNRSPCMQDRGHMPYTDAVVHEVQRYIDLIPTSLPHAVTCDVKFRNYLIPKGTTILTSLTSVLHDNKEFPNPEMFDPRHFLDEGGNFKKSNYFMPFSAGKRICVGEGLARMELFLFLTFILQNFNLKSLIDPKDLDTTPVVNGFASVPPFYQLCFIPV
The target of the next data set is T2, Cytochrome P450 1A2 (Homo sapiens, UniProt P05177).
T2 sequence (P05177 whole entry): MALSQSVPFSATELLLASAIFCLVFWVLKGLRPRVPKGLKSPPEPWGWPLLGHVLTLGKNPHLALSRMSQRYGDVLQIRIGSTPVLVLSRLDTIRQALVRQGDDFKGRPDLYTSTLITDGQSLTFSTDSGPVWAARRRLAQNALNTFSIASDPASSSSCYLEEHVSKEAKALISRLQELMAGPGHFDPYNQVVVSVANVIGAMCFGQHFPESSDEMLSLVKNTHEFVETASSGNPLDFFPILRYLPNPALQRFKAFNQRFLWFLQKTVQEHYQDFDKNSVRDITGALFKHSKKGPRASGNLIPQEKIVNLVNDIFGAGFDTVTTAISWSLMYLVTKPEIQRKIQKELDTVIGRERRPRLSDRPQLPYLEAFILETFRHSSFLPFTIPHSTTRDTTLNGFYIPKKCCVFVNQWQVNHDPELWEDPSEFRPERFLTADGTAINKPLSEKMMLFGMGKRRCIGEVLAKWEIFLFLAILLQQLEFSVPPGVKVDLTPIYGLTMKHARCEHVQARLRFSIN
Briefly: Inhibition of human CYP1A2. It is filed as ADME.

Data set [4] is described as follows: Stability in monkey liver microsomes assessed as half life. It is filed as ADME, Macaca mulatta, Microsome. The note with it: rhesus monkey.
Data set [5] in a line: Metabolic stability in mouse liver microsomes assessed as compound remaining at 0.5 uM incubated for 10 mins relative to control. The note with it: for remaining at 10 min, 0.5 µM: liver microsomes, read-out: Stability. It is filed as ADME, Microsome.
In data set [6] the target is Tryptophan 2,3-dioxygenase (Homo sapiens, UniProt P48775). Briefly: Inhibition of TDO (unknown origin) expressed in HEK cells. It is filed as cell-based.
Chain of Tryptophan 2,3-dioxygenase (P48775 whole entry): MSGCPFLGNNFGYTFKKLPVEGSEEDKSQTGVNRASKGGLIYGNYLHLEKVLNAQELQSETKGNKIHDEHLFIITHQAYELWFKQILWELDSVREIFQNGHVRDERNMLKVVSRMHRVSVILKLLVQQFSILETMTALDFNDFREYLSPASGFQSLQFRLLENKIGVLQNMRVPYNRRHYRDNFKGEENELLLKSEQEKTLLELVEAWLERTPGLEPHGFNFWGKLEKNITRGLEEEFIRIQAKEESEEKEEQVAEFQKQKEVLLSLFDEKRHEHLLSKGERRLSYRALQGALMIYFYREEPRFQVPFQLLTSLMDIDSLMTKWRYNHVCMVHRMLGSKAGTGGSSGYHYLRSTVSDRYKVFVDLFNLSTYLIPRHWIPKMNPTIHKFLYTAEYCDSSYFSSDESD
For data set [7], the target named is T1, Cytochrome P450 2C9. Briefly: Inhibition of human CYP2C9. Type of data set: ADME.
The nature of data set [8]: Stability in mouse liver microsomes assessed as half life. It is filed as ADME, Microsome.
The nature of data set [9]: Stability in rat liver microsomes assessed as half life. It is filed as ADME, Microsome.
A further data set concerns the target T3, Cytochrome P450 2C8 (Homo sapiens, UniProt P10632).
T3 sequence (P10632 whole entry): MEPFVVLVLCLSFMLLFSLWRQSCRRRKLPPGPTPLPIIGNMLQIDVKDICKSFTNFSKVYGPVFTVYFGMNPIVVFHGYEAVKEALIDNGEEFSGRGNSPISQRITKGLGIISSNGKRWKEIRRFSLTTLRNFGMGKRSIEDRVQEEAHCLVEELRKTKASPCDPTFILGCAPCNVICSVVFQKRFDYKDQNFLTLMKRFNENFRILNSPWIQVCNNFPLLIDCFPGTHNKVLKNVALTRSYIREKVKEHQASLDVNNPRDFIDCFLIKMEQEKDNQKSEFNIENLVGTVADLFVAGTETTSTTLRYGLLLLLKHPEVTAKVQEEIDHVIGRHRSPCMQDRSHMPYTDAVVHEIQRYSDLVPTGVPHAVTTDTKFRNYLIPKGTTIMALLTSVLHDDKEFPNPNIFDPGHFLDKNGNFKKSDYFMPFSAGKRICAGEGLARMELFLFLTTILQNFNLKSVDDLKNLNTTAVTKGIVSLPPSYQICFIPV
Briefly: Inhibition of human CYP2C8. It is filed as ADME.

The target of data set [10] is T4, Cytochrome P450 2B6 (Homo sapiens, UniProt P20813).
T4 sequence (P20813 whole entry): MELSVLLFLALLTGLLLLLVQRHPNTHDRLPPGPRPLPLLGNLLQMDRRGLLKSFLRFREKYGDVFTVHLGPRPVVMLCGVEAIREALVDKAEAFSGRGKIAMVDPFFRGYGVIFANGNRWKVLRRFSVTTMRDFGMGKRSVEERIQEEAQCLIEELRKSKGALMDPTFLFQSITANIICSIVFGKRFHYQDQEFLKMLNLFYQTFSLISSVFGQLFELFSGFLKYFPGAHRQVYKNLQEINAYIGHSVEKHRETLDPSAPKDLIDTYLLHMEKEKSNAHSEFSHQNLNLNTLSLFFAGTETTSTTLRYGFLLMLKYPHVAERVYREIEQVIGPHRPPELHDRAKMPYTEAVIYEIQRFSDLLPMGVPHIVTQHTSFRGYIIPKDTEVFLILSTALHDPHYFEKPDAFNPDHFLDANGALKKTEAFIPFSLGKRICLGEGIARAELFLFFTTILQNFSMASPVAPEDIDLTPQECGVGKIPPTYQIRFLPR
Briefly: Inhibition of human CYP2B6. It is filed as ADME.

Data set [11] in a line: Metabolic stability in rat liver microsomes assessed as compound remaining at 0.5 uM incubated for 10 mins relative to control. It is filed as ADME, Microsome. To be noted: for remaining at 10 min, 0.5 µM: liver microsomes, read-out: Stability.
Data set [12] is described as follows: Stability in human liver microsomes assessed as half life. It is filed as ADME, Microsome.
The target of data set [13] is Indoleamine 2,3-dioxygenase 1 (Homo sapiens, UniProt P14902). Briefly: Inhibition of IDO1 (unknown origin) expressed in human HeLa cells. It is filed as cell-based.
Chain of Indoleamine 2,3-dioxygenase 1 (P14902 whole entry): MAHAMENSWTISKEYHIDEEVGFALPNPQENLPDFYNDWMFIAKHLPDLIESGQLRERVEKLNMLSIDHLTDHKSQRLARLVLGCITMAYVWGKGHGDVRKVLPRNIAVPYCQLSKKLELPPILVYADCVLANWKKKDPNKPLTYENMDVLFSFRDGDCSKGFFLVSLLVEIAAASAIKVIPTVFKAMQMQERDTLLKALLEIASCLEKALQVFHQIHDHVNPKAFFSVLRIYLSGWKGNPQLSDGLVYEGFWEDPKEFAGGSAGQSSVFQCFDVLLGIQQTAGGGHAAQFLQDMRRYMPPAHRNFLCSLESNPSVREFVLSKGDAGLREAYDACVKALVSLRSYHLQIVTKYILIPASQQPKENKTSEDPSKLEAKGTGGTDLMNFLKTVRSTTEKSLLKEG
Data set [14] addresses T4, Cytochrome P450 2B6. Briefly: Inhibition of CYP2B6 (unknown origin). It is filed as ADME.
In data set [15] the target is Voltage-gated inwardly rectifying potassium channel KCNH2 (Homo sapiens, UniProt Q12809). Briefly: (§1) Inhibition of hERG at 10 uM relative to control. Type of data set: toxicity. To be noted: 10 µM.
In a further data set the target is hERG (Homo sapiens, UniProt Q12809). The data set is described as §1. Type of data set: toxicity.
Chain of hERG (Q12809 whole entry): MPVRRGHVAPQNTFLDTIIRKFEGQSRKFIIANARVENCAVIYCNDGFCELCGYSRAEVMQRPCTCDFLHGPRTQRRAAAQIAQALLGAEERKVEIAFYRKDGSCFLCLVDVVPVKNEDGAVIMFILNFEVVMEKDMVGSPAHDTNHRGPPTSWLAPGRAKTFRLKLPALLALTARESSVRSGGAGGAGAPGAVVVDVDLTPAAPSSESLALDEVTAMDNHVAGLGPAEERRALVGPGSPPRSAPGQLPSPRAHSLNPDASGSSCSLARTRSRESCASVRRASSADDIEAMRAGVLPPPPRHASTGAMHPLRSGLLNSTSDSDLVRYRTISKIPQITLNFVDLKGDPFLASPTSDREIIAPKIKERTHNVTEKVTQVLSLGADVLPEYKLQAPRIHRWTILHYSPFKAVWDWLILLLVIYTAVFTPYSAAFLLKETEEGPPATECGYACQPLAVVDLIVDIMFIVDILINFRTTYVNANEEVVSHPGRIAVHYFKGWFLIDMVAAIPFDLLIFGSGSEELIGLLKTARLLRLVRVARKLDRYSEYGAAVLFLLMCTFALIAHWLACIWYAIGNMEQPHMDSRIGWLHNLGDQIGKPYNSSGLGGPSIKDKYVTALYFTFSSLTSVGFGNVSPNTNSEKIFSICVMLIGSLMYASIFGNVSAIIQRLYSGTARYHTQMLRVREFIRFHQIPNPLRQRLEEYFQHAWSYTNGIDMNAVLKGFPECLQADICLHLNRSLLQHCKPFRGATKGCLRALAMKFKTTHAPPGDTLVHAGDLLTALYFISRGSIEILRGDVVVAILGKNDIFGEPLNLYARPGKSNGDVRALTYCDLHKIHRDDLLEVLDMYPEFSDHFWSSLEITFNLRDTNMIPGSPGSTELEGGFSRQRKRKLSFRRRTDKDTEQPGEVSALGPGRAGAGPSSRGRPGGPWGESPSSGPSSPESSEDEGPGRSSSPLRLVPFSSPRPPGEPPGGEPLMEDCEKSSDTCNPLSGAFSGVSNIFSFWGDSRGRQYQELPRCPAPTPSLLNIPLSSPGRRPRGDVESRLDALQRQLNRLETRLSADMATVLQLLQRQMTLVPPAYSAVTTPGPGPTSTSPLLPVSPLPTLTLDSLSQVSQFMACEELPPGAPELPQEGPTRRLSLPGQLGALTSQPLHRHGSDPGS

The structures appear in SMILES notation.

As for `Cc1ccc(NC(=O)Nc2cc(-c3ccccc3-c3nnn[nH]3)ccc2N(CC(C)C)CC(C)C)cc1`, the IC50 on Cytochrome P450 2C9 [1] was 2.7 µM; against Cytochrome P450 2D6, 18 µM; against Cytochrome P450 3A4, 7.8 µM; on Cytochrome P450 2C19 it was 8.7 µM; against Cytochrome P450 1A2, 9.5 µM; in [6], more than 7.5 µM. The IC50 at Cytochrome P450 2C9 [7] was found to be 2.7 µM; against Cytochrome P450 2C8, 9.2 µM; at Cytochrome P450 2B6 [10], 19 µM; in data set [13] it was 0.007 µM. Further, the half-life in data set [2] worked out at 11 min; in data set [4], 4 min; in data set [8], 6.6 min; in data set [9] it was 22 min; in data set [12], 9.1 min. The remaining at 10 min, 0.5 µM in data set [3] worked out at 37%; in [5] it was 33%; in data set [11], 60%.

As for `Cc1ccc(NC(=O)Nc2cc(-c3ccccc3-c3nc(=O)[nH]o3)cc3c2OCCCC3c2ccccc2)cc1` (stereo in doubt; 20), the Stability in [3] (microsomes, 10 min, 0.5 µM) was found to be 73%; in data set [5] (microsomes, 10 min, 0.5 µM), 40%; in data set [11] (microsomes, 10 min, 0.5 µM) it was 38%. For the same compound, the IC50 on Cytochrome P450 2B6 [14] was 0.78 µM; in data set [6] (hek), more than 6 µM; in data set [13], 0.0046 µM. For the same compound, the “inhibition (INH)” value in data set [15] is reported as 18%.

`Cc1ccc(NC(=O)Nc2cc(-c3ccccc3-c3nn[nH]n3)cc3c2OCCCC3c2ccccc2)cc1` (stereo in doubt; 21): the IC50 at Cytochrome P450 2C9 [1] was 3.7 µM; against Cytochrome P450 2D6 it was more than 20 µM; on Cytochrome P450 3A4, 8.4 µM; against Cytochrome P450 2C19, 6.7 µM; against Cytochrome P450 1A2, more than 20 µM; in [6], more than 6 µM. For the same compound, the IC50 against Cytochrome P450 2C9 [7] was 3.7 µM; against Cytochrome P450 2C8, 18 µM; against Cytochrome P450 2B6 [10], 17 µM; in data set [13] it was 0.0036 µM. Besides, the half-life in data set [2] is 22 min; in data set [4], 7.4 min; in [8] it was 25 min; in [9] it was 54 min; in [12], 18 min. In addition, the remaining at 10 min, 0.5 µM in data set [3] worked out at 70%; in data set [5], 84%; in data set [11], 92%. Also, the inhibition at 10 µM against hERG amounted to 41%.
